Experimental data taken from the supplement of paper PMC10307832.

Tests used:
Experiment in all cases: relative viability (nuclei count vs DMSO), 5 days (fraction); higher = more cells survive
CAL-12T = tested on: CAL-12T
How it was run: (§1)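 Lung cancer cell lines were seeded in 1536-well plates and dosed by pin tool the next day, with either a single drug or a fixed anchor-drug dose combined with five library-drug doses (not always all listed) spaced in √10 steps. Five days later, one step fixed the cells and stained their nuclei (final 0.05% Triton X-100, 1% formaldehyde, 1 ug/ml Hoechst), and nuclei were counted on 4× images. Relative viability is the nuclei count in treated wells divided by the count in vehicle wells, and each value is the median of duplicate plates.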

H3255 = tested on: H3255
How it was run: as §1

NCI-H2405 = tested on: NCI-H2405
How it was run: as §1

NCI-H322M = tested on: NCI-H322M
How it was run: as §1

BEN = tested on: BEN
How it was run: as §1

COR-L 105 = tested on: COR-L 105
How it was run: as §1

HCC-827 = tested on: HCC-827
How it was run: as §1

NCI-H1437 = tested on: NCI-H1437
How it was run: as §1

LXF-289 = tested on: LXF-289
How it was run: as §1

HCC-15 = tested on: HCC-15
How it was run: as §1

LC-2-ad = tested on: LC-2-ad
How it was run: as §1

HARA = tested on: HARA
How it was run: as §1

With `O=c1[nH]c2ccccc2n1C1CCN(CCCC(c2ccc(F)cc2)c2ccc(F)cc2)CC1` [Pimozide] + CS(=O)(=O)CCNCc1ccc(-c2ccc3ncnc(Nc4ccc(OCc5cccc(F)c5)c(Cl)c4)c3c2)o1 [Lapatinib] (partner 2 µM) the relative viability (CAL-12T; first compound 0.08 µM) was 0.57, the relative viability (CAL-12T; first compound 0.253 µM) was 0.588 and the relative viability (CAL-12T; first compound 0.8 µM) was 0.551. The relative viability (CAL-12T; first compound 2.53 µM) was 0.538, the relative viability (CAL-12T; first compound 8 µM) was 0.625 and the relative viability (H3255; first compound 0.253 µM) was 0.281. It also gave a relative viability (H3255; first compound 0.8 µM) of 0.266, a relative viability (H3255; first compound 2.53 µM) of 0.229 and a relative viability (H3255; first compound 8 µM) of 0.254. For the same compound, the relative viability (NCI-H2405; first compound 0.08 µM) was 1.02, the relative viability (NCI-H2405; first compound 0.253 µM) was 0.833 and the relative viability (NCI-H2405; first compound 0.8 µM) was 0.984. It also gave a relative viability (NCI-H2405; first compound 2.53 µM) of 1.04, a relative viability (NCI-H2405; first compound 8 µM) of 0.79 and a relative viability (NCI-H322M; first compound 0.253 µM) of 0.56. For the same compound, the relative viability (NCI-H322M; first compound 0.8 µM) was 0.584, the relative viability (NCI-H322M; first compound 2.53 µM) was 0.635 and the relative viability (NCI-H322M; first compound 8 µM) was 0.525. The relative viability (BEN; first compound 0.08 µM) was 0.615, the relative viability (BEN; first compound 0.253 µM) was 0.854 and the relative viability (BEN; first compound 0.8 µM) was 0.73. The relative viability (BEN; first compound 2.53 µM) was 0.669, the relative viability (BEN; first compound 8 µM) was 0.728 and the relative viability (COR-L 105; first compound 0.253 µM) was 0.395. For the same compound, the relative viability (COR-L 105; first compound 0.8 µM) was 0.377, the relative viability (COR-L 105; first compound 2.53 µM) was 0.396 and the relative viability (COR-L 105; first compound 8 µM) was 0.351. For the same compound, the relative viability (HCC-827; first compound 0.253 µM) was 0.205, the relative viability (HCC-827; first compound 0.8 µM) was 0.189 and the relative viability (HCC-827; first compound 2.53 µM) was 0.179. The relative viability (HCC-827; first compound 8 µM) was 0.194, the relative viability (NCI-H1437; first compound 0.08 µM) was 0.858 and the relative viability (NCI-H1437; first compound 0.253 µM) was 0.849. The relative viability (NCI-H1437; first compound 0.8 µM) was 0.801, the relative viability (NCI-H1437; first compound 2.53 µM) was 0.636 and the relative viability (NCI-H1437; first compound 8 µM) was 0.539. The relative viability (LXF-289; first compound 0.08 µM) was 0.863, the relative viability (LXF-289; first compound 0.253 µM) was 0.937 and the relative viability (LXF-289; first compound 0.8 µM) was 0.882. For the same compound, the relative viability (LXF-289; first compound 2.53 µM) was 0.87, the relative viability (LXF-289; first compound 8 µM) was 0.829 and the relative viability (HCC-15; first compound 0.08 µM) was 0.857. It also gave a relative viability (HCC-15; first compound 0.253 µM) of 0.889, a relative viability (HCC-15; first compound 0.8 µM) of 0.701 and a relative viability (HCC-15; first compound 2.53 µM) of 0.791. For the same compound, the relative viability (HCC-15; first compound 8 µM) was 0.777, the relative viability (LC-2-ad; first compound 0.08 µM) was 0.943 and the relative viability (LC-2-ad; first compound 0.253 µM) was 0.918. It also gave a relative viability (LC-2-ad; first compound 0.8 µM) of 0.918, a relative viability (LC-2-ad; first compound 2.53 µM) of 0.949 and a relative viability (LC-2-ad; first compound 8 µM) of 0.6. The relative viability (HARA; first compound 0.08 µM) was 0.765 and the relative viability (HARA; first compound 0.253 µM) was 0.963.
